Laboratory results published in patent publication US4731109A, “Herbicidal 2-haloacetanilides” (Monsanto Company, priority 1982, dated 1988).
Read-outs that look alike come from different tables or passages of the source.

Legend:
Type in all cases: in vivo
common purslane = assay: Greenhouse pre-emergence GR15/GR85 selectivity test; conditions: Table XV
Summary of the method: (§1)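 Pre-emergence soil-incorporation test: seeded pans were covered with topsoil mixed with active ingredient (in solvent or as wettable powder), overhead-irrigated (0.64 cm) or not, then subirrigated. Plants were scored about 2-3 weeks after treatment. GR15/GR85 rates are in kg/ha, and selectivity factor is crop GR15 divided by weed GR85.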

common ragweed = assay: as above; conditions: Table XV
Summary of the method: as §1

prickly sida = assay: as above; conditions: Table XV
Summary of the method: as §1

redroot pigweed = assay: as above; conditions: Table XV
Summary of the method: as §1

purple nutsedge = assay: as above; conditions: Table XV
From the text: (§2) A good grade of top soil is placed in aluminum pans and compacted to a depth of three-eighths to one-half inch from the top of the pan. On the top of the soil is placed a number of seeds or vegetative propagules of various plant species. The soil required to level fill the pans after seeding or adding vegetative propagules is weighed into a pan. The soil and a known amount of the active ingredient applied in a solvent or as a wettable powder suspension are thoroughly mixed, and used to cover the prepared pans. After treatment, the pans are given an initial overhead irrigation of eater, equivalent to one-fourth inch (0.64 cm) rainfall, then watered by subirrigation as need to give adequate moisture for germination and growth. As an alternative procedure, the overhead irrigation may be omitted. Observations are made about 2-3 weeks after seeding and treatment.
(§3) In the discussion and tables of data below, reference is made to herbicide application rates symbolized as "GR15 " and "GR85 "; these rates are given in kilograms per hectare (kg/ha) which are convertible into pounds per acre (lbs/A) by dividing the kg/ha rate by 1.12.
(§4) A further guide to the effectiveness of a chemical as a selective herbicide is the "selectivity factor" ("SF") for a herbicide in given crops and weeds. The selectivity factor is a measure of the relative degree of crop safety and weed injury and is expressed in terms of the GR15 /GR85 ratio, i.e., the GR15 rate for the crop divided by the GR85 rate for the weed, both rates in kg/ha (lb/A). In the tables below, selectivity factors are shown in parenthesis following the GR85 rate for each weed; the symbol "NS" indicates "non-selective". Marginal or undetermined selectivity is indicated by a dash (--).
(§5) Additionally, pre-emergence herbicidal data from other tests have established that compounds according to this invention also selectively suppress quackgrass, yellow nutsedge and/or other weeds in one or more of the crops cotton, peanuts, bush beans and/or rape. For example, in Table VI are presented data showing the herbicidal selectivity of the compounds of Examples 1 and 2 against quackgrass in rape and snap beans. Unless otherwise noted; greenhouse tests in Table VI and in other tables below involved herbicide treatments by soil incorporation and an initial overhead irrigation followed by subirrigation as described above.
In other greenhouse tests, compounds according to this invention have shown selective control of a variety of annual and perennial weeds in various crops. As further illustrative, the compound of Example 1 selectively controlled purple nutsedge in both corn nd soybeans, the respective crop/weed GR15 /GR85 ratios (expressed in kg/ha) being 0.67/0.25 (S.F.=2.7) in corn and 1.1/0.25 (S.F.=4.5) in soybeans. The compound of Example 8 has shown selective control of yellow nutsedge and quackgrass in corn and soybeans. The respective crop/yellownutsedge GR15 /GR85 ratios being >2.2/0.95 (S.F.=2.5) in corn; 2.2/0.5 (SF=4.5) in soybeans and the respective GR15 /GR85 ratios for both corn and soybeans in quackgrass being >2.2/0.5 (S.F.=4.5). In a test against yellow nutsedge in cotton, the GR15 /GR85 ratio (average of two replicates) was 2.0/0.95 (S.F.=2).
In another greenhouse test, the compounds of Examples 3-5, 9 and 10 were tested for their herbicidal efficacy against a variety of resistant annual and perennial weeds in rape.

cotton = assay: as above; conditions: Table XII
From the text: as §2, §3, §4, §5
In one multi-crop test in the greenhouse, the compounds of Examples 1, 9, and 10 were tested against yellow nutsedge in cotton, soybeans, corn and rice; each compound was non-selective with respect to yellow nutsedge in rice. However, markedly high selectivities for yellow nutsedge in cotton, soybeans and corn were shown for each of the compounds in the test; the respective GR15 and GR85 rates for these compounds are shown in Table XII selectivity factors are shown in parenthesis after each crop.

Barnyardgrass = assay: Resistance to leaching and resulting herbicidal efficacy; conditions: Echinochloa crus-galli, read-out: Percent Inhibition; for inhibition at 140 g/ha: 0.14 Kg/Ha; for inhibition at 560 g/ha: 0.56 Kg/Ha; for inhibition at 2200 g/ha: 2.2 Kg/Ha
Experimental: Laboratory tests were conducted to determine the resistance of herbicides according to this invention to leaching into the soil and resulting herbicidal efficacy. […] The pots containing the treated soil were subjected to leaching by placing on a turntable which rotated under two nozzle tips of a water container calibrated to deliver one inch (2.5 cm) of water per hour simulating rainfall. Leaching rates were adjusted by varying the amount of time on the turntable. Water was delivered to the soil in the pots and allowed to percolate through the filter paper and drainage holes. The pots were then allowed to sit for three days at ambient room temperature. The treated soil in the pots was then removed, crumbled and placed as a surface layer on top of other pots containing the above soils seeded with barnyardgrass seeds. The pots were then placed on greenhouse benches, sub-irrigated and allowed to grow for 2-3 weeks. Visual ratings of percent growth inhibition compared to control (untreated) pots and fresh weights for barnyardgrass were recorded; the data from the control represents six replications and that for the test compounds three replications; test data are shown in Table XVIII.

[1] = Drummer silt clay, rain 1.27 cm
[2] = Drummer silt clay, rain 5.08 cm
[3] = Drummer silt clay, rain 10.16 cm

## CCCOCN(C(=O)CCl)c1c(CC)cccc1C(F)(F)F [Example 10, N--(n-propoxymethyl)-2'-trifluoromethyl-6'-ethyl-2-chloroacetanilide]
Common purslane
  GR85 Rate: > 1.12 Kg/Ha
Common ragweed
  GR85 Rate: > 1.12 Kg/Ha
Prickly sida
  GR85 Rate: > 1.12 Kg/Ha
Redroot pigweed
  GR85 Rate: 0.70 Kg/Ha
Redroot pigweed; in rape
  selectivity factor (GR15/GR85): > 1.6
Purple nutsedge
  GR85 Rate: 0.18 Kg/Ha
Purple nutsedge; in rape
  selectivity factor (GR15/GR85): > 6.2
cotton
  GR15: 2.8 Kg/Ha
Barnyardgrass; Drummer silt clay, rain 0 cm
  inhibition at 140 g/ha: 90%
  inhibition at 560 g/ha: 99%
  inhibition at 2200 g/ha: 100%
Barnyardgrass; [1]
  inhibition at 140 g/ha: 85%
  inhibition at 560 g/ha: 98%
  inhibition at 2200 g/ha: 100%
Barnyardgrass; [2]
  inhibition at 140 g/ha: 80%
  inhibition at 560 g/ha: 98%
  inhibition at 2200 g/ha: 99%
Barnyardgrass; [3]
  inhibition at 140 g/ha: 70%
  inhibition at 560 g/ha: 98%
  inhibition at 2200 g/ha: 98%
Barnyardgrass; Ray silt loam, rain 0 cm
  inhibition at 140 g/ha: 100%
  inhibition at 560 g/ha: 100%
Barnyardgrass; Ray silt loam, rain 1.27 cm
  inhibition at 140 g/ha: 100%
  inhibition at 560 g/ha: 100%
  inhibition at 2200 g/ha: 100%
Barnyardgrass; Ray silt loam, rain 5.08 cm
  inhibition at 140 g/ha: 98%
  inhibition at 560 g/ha: 100%
  inhibition at 2200 g/ha: 100%
Barnyardgrass; Ray silt loam, rain 10.16 cm
  inhibition at 560 g/ha: 90%
  inhibition at 2200 g/ha: 98%
  inhibition at 140 g/ha: 65%
